Assay results reported in ChEMBL document CHEMBL1201862, “PubChem BioAssay data set” (2004).
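Dose response: 5 concentrations. Exposure: 48 h. Format: 96-well plates. Endpoint: linear interpolation; highest concentration if not reached. GI50 is the concentration that inhibits growth by half.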 The source made the active and inactive calls. Rule as the data show it: active = GI50 up to about 1.1 µM and inactive = higher.

Tests used:
Experiment in all cases: NCI tumour cell line growth inhibition, 48 h
UACC-62 = system: UACC-62
OVCAR-5 = system: OVCAR-5
CCRF-CEM = system: CCRF-CEM
SN12C = system: SN12C
KM12 = system: KM12
LOX IMVI = system: LOX IMVI
HL-60 = system: HL-60
Hs-578T = system: Hs-578T
HOP-92 = system: HOP-92
MDA-N = system: MDA-N
MOLT-4 = system: MOLT-4
NCI/ADR-RES = system: NCI/ADR-RES
MDA-MB-231 = system: MDA-MB-231
HCT-116 = system: HCT-116
OVCAR-4 = system: OVCAR-4
CAKI-1 = system: CAKI-1
SF-268 = system: SF-268
PC-3 = system: PC-3
SNB-75 = system: SNB-75
RPMI-8226 = system: RPMI-8226

Compound: COc1ccc(CC(O)CN2CCOCC2)cc1 (configuration not stated)
- GI50 (UACC-62): > 100 µM (inactive)
- GI50 (OVCAR-5): > 100 µM (inactive)
- GI50 (CCRF-CEM): > 100 µM (inactive)
- GI50 (SN12C): > 100 µM (inactive)
- GI50 (KM12): > 100 µM (inactive)
- GI50 (LOX IMVI): > 100 µM (inactive)
- GI50 (HL-60): > 100 µM (inactive)
- GI50 (Hs-578T): > 100 µM (inactive)
- GI50 (HOP-92): > 100 µM (inactive)
- GI50 (MDA-N): > 100 µM (inactive)
- GI50 (MOLT-4): > 100 µM (inactive)
- GI50 (NCI/ADR-RES): > 100 µM (inactive)
- GI50 (MDA-MB-231): > 100 µM (inactive)
- GI50 (HCT-116): > 100 µM (inactive)
- GI50 (OVCAR-4): > 100 µM (inactive)
- GI50 (CAKI-1): > 100 µM (inactive)
- GI50 (SF-268): > 100 µM (inactive)
- GI50 (PC-3): > 100 µM (inactive)

Compound: CN1CCCCCC(=N\O)/C(=N/O)CCCCC1
- GI50 (OVCAR-5): > 100 µM (inactive)
- GI50 (CCRF-CEM): > 100 µM (inactive)
- GI50 (SN12C): > 100 µM (inactive)
- GI50 (KM12): > 100 µM (inactive)
- GI50 (LOX IMVI): > 100 µM (inactive)
- GI50 (HL-60): > 100 µM (inactive)
- GI50 (Hs-578T): > 100 µM (inactive)
- GI50 (HOP-92): > 100 µM (inactive)
- GI50 (MDA-N): > 100 µM (inactive)
- GI50 (SNB-75): > 100 µM (inactive)
- GI50 (MOLT-4): > 100 µM (inactive)
- GI50 (NCI/ADR-RES): > 100 µM (inactive)
- GI50 (MDA-MB-231): > 100 µM (inactive)
- GI50 (HCT-116): > 100 µM (inactive)
- GI50 (CAKI-1): > 100 µM (inactive)
- GI50 (SF-268): > 100 µM (inactive)
- GI50 (PC-3): > 100 µM (inactive)

Compound: O=P(OCc1ccccc1)(OCc1ccccc1)C(O)/C=C/c1ccccc1 (configuration not stated)
- GI50 (UACC-62): 15.8 µM (inactive)
- GI50 (OVCAR-5): 30.6 µM (inactive)
- GI50 (SN12C): 19.8 µM (inactive)
- GI50 (KM12): 19.8 µM (inactive)
- GI50 (LOX IMVI): 14.9 µM (inactive)
- GI50 (HL-60): 19.8 µM (inactive)
- GI50 (Hs-578T): 17 µM (inactive)
- GI50 (RPMI-8226): 23.6 µM (inactive)
- GI50 (HOP-92): 19.4 µM (inactive)
- GI50 (MDA-N): 17.3 µM (inactive)
- GI50 (MOLT-4): 21.6 µM (inactive)
- GI50 (NCI/ADR-RES): 26.5 µM (inactive)
- GI50 (MDA-MB-231): 22.3 µM (inactive)
- GI50 (HCT-116): 17.7 µM (inactive)
- GI50 (OVCAR-4): 21.4 µM (inactive)
- GI50 (CAKI-1): 35.7 µM (inactive)
- GI50 (SF-268): 16.9 µM (inactive)
- GI50 (PC-3): 28 µM (inactive)

Compound: O=C(C/N=C(\CN(c1ccccc1)c1ccccc1)Oc1ccc(Cl)cc1Cl)n1ccnc1
- GI50 (UACC-62): > 100 µM (inactive)
- GI50 (OVCAR-5): > 100 µM (inactive)
- GI50 (CCRF-CEM): > 100 µM (inactive)
- GI50 (SN12C): > 100 µM (inactive)
- GI50 (KM12): > 100 µM (inactive)
- GI50 (LOX IMVI): > 100 µM (inactive)
- GI50 (Hs-578T): > 100 µM (inactive)
- GI50 (RPMI-8226): > 100 µM (inactive)
- GI50 (HOP-92): 63 µM (inactive)
- GI50 (MDA-N): > 100 µM (inactive)
- GI50 (SNB-75): > 100 µM (inactive)
- GI50 (MOLT-4): > 100 µM (inactive)
- GI50 (NCI/ADR-RES): > 100 µM (inactive)
- GI50 (MDA-MB-231): > 100 µM (inactive)
- GI50 (HCT-116): > 100 µM (inactive)
- GI50 (OVCAR-4): > 100 µM (inactive)
- GI50 (SF-268): > 100 µM (inactive)
- GI50 (PC-3): > 100 µM (inactive)

Compound: Clc1ccc(/N=C2\c3ccccc3CN2c2ccc(Cl)cc2)cc1
- GI50 (UACC-62): > 100 µM (inactive)
- GI50 (OVCAR-5): > 100 µM (inactive)
- GI50 (CCRF-CEM): < 0.01 µM (active)
- GI50 (SN12C): > 100 µM (inactive)
- GI50 (KM12): 77.8 µM (inactive)
- GI50 (LOX IMVI): > 100 µM (inactive)
- GI50 (Hs-578T): > 100 µM (inactive)
- GI50 (RPMI-8226): 7.69 µM (inactive)
- GI50 (HOP-92): 39.9 µM (inactive)
- GI50 (MDA-N): 30.1 µM (inactive)
- GI50 (SNB-75): 63.8 µM (inactive)
- GI50 (MOLT-4): > 100 µM (inactive)
- GI50 (NCI/ADR-RES): > 100 µM (inactive)
- GI50 (MDA-MB-231): 53.3 µM (inactive)
- GI50 (HCT-116): 41.4 µM (inactive)
- GI50 (OVCAR-4): 61.9 µM (inactive)
- GI50 (CAKI-1): > 100 µM (inactive)
- GI50 (SF-268): 47.1 µM (inactive)
- GI50 (PC-3): 74.3 µM (inactive)

Compound: CN(C)c1ccc(-c2c(C#N)c(-c3ccccc3)n(NS(=O)(=O)c3ccccc3)c(=O)c2C#N)cc1
- GI50 (UACC-62): 43.3 µM (inactive)
- GI50 (OVCAR-5): > 100 µM (inactive)
- GI50 (CCRF-CEM): 26.5 µM (inactive)
- GI50 (SN12C): 68.9 µM (inactive)
- GI50 (KM12): 65.6 µM (inactive)
- GI50 (LOX IMVI): 37.4 µM (inactive)
- GI50 (Hs-578T): 23.1 µM (inactive)
- GI50 (RPMI-8226): 21.3 µM (inactive)
- GI50 (HOP-92): 28.9 µM (inactive)
- GI50 (MDA-N): 68.1 µM (inactive)
- GI50 (SNB-75): 48.5 µM (inactive)
- GI50 (MOLT-4): 20.7 µM (inactive)
- GI50 (NCI/ADR-RES): 57.3 µM (inactive)
- GI50 (MDA-MB-231): 88.1 µM (inactive)
- GI50 (HCT-116): 34.1 µM (inactive)
- GI50 (OVCAR-4): > 100 µM (inactive)
- GI50 (CAKI-1): 45.7 µM (inactive)
- GI50 (SF-268): 56 µM (inactive)
- GI50 (PC-3): 26.9 µM (inactive)

Compound: O=S(=O)(O)c1ccc(/N=N/c2ccc(/N=N/c3c(O)c(S(=O)(=O)O)cc4cc(S(=O)(=O)O)ccc34)cc2)cc1
- GI50 (UACC-62): > 100 µM (inactive)
- GI50 (OVCAR-5): > 100 µM (inactive)
- GI50 (CCRF-CEM): > 100 µM (inactive)
- GI50 (SN12C): > 100 µM (inactive)
- GI50 (KM12): > 100 µM (inactive)
- GI50 (HL-60): > 100 µM (inactive)
- GI50 (Hs-578T): > 100 µM (inactive)
- GI50 (RPMI-8226): > 100 µM (inactive)
- GI50 (HOP-92): > 100 µM (inactive)
- GI50 (MDA-N): > 100 µM (inactive)
- GI50 (MOLT-4): > 100 µM (inactive)
- GI50 (NCI/ADR-RES): > 100 µM (inactive)
- GI50 (MDA-MB-231): > 100 µM (inactive)
- GI50 (HCT-116): > 100 µM (inactive)
- GI50 (OVCAR-4): > 100 µM (inactive)
- GI50 (CAKI-1): > 100 µM (inactive)
- GI50 (SF-268): > 100 µM (inactive)
- GI50 (PC-3): > 100 µM (inactive)

Compound: CCN(CC)c1nc(NC2CCCCC2)c2nc(N(CC)CC)nc(NC3CCCCC3)c2n1
- GI50 (UACC-62): > 100 µM (inactive)
- GI50 (OVCAR-5): > 100 µM (inactive)
- GI50 (CCRF-CEM): > 100 µM (inactive)
- GI50 (SN12C): > 100 µM (inactive)
- GI50 (KM12): > 100 µM (inactive)
- GI50 (HL-60): > 100 µM (inactive)
- GI50 (Hs-578T): > 100 µM (inactive)
- GI50 (HOP-92): 38.7 µM (inactive)
- GI50 (MDA-N): > 100 µM (inactive)
- GI50 (MOLT-4): > 100 µM (inactive)
- GI50 (NCI/ADR-RES): > 100 µM (inactive)
- GI50 (MDA-MB-231): 88.1 µM (inactive)
- GI50 (HCT-116): > 100 µM (inactive)
- GI50 (SF-268): > 100 µM (inactive)
- GI50 (PC-3): > 100 µM (inactive)
